The record followed here is patent US20220227765A1, “PYRIDO-INDOLE ANALOGUES AS GPX4 INHIBITORS” (Ferro Therapeutics, Inc., priority 2019, published 2022).

Converted amounts (≈) assume the structure as drawn. Like-named read-outs stand apart in the source and are kept apart here.

The nature of series [1]: Human blood stability. The class given is in vitro ADME.
The test system of series [2] is SJSA-1. The series is described as follows: Cell proliferation (Alamar Blue) assay, SJSA-1. The format is cell-based, human. As to conditions: Homo sapiens, SJSA-1, 24 h. The procedure:
(§1) Cell viability assay was performed to assess the potency of the compounds in human cancer cell lines 786-0 (renal cell carcinoma) and SJSA-1 (osteosarcoma). Additional cell lines, such as pancreatic cancer cell lines (Panc 02.13, BxPC-3, Panc 12, Panc 02.03, Panc 6.03, PSN-1, HPAC, and Capan-1), prostate cancer cell lines (PC-3, DU145, 22Rv1, NCI-H660, BPH1, LNCaP, BM-1604, and MDA PCa 2b), etc., can be tested in a similar method.
(§2) Cells (SJSA-1, 786-0 and A431) were seeded (5000 cells/100 μL/well) in 96-well tissue culture plate and incubated at 37° C./5% CO2 for 16-24 hours. The cells were then treated with compounds (25 μL of 5×). The compound concentrations were 10-0.0005 μM prepared in 3-fold serial dilutions with final DMSO concentration of 1%. The plates were then incubated for 24 h at 37° C./5% CO2 in a moist environment. Then Alamar Blue™ reagent (final concentration 1×-12.5 μL) was added to each well and incubated for 1.5 hours at 37° C./5% CO2. The plates were read on fluorescence reader at 540 nm excitation and 590 nm emission wavelengths. The IC50 values were subsequently determined using a sigmoidal dose-response curve (variable slope) in GraphPad Prism® 5 software. Table A-3, Table B-3 and Table C-3 show cell proliferation data for certain compounds as described herein.
For orientation: The colour change of resazurin is a common sign of viable cells or microbes.

A short description of series [3]: Rat hepatocyte metabolic stability. The format is in vitro ADME.
Series [4] in a line: Human hepatocyte metabolic stability. The class given is in vitro ADME.
For series [5], the system named is 786-O. The series is described as follows: Cell proliferation (Alamar Blue) assay, 786-O. The format is cell-based, human. As to conditions: Homo sapiens, 786-0, 24 h. The procedure:
as §1, §2

The nature of series [6]: Kinetic solubility (PBS, pH 7.4). The note with it: for solubility kinetic: aqueous buffer, kinetic from dmso stock. The format is physicochemical.
Series [7] is described as follows: CD-1 Mouse Whole Blood Stability Assay. The format is in vitro ADME. As to conditions: Table B-6, incubation at 37° C.
For series [8], the system named is A431. The series is described as follows: Cell proliferation (Alamar Blue) assay, A431. The class given is cell-based, human. As to conditions: Homo sapiens, A-431, 24 h. Here is the method:
as §1, §2

Series [9] can be described thus: Equilibrium solubility at different pHs and with SBECD. The class given is physicochemical. As to conditions: thermodynamic from solid.
Setting [10] is: Table B-3, head prints SJSB-1, 24 h, read-out: IC50 (μM) SJSB-1.
[11] abbreviates: aqueous buffer, pH 3.0 PBS buffer, read-out: Eq. solubility pH 3.0 PBS buffer.
[12] abbreviates: aqueous with cosolvent or surfactant or cyclodextrin, 20% SBECD (sulfobutyl ether cyclodextrin), read-out: Eq. solubility 20% SBECD.
The mark [13] stands for this setting: Table C-3, SJSA-1 cells, 24 h, read-out: IC50 (μM) SJSA-1.

As for `C#CC(=O)N1[C@@H](CCCC)Cc2c([nH]c3ccccc23)[C@@H]1c1ccc(C(=O)NC2CCC2)nc1` [Compound B-5, 5-((1S,3S)-3-butyl-2-propioloyl-2,3,4,9-tetrahydro-1H-pyrido[3,4-b]indol-1-yl)-N-cyclobutylpicolinamide], the “human blood stability % remaining” value came to 36%_15 in [1] (15 min); 41%_30 in [1] (30 min); 11%_45 in series [1] (45 min); 9%_60 in series [1] (60 min); 0%_120 in [1] (120 min). For the same compound, the IC50 – broadly, the concentration that gives 50% inhibition – in [2] (setting [10]) amounted to 0.002 µM; in series [5] (Table B-3, 786-O cells), 0.002 µM. The “rat hepatocytes extr. Ratio” value in series [3] amounted to 0.9. The “human hepatocytes extr. Ratio” value in series [4] came out at 0.82. Also, in series [6] (Table B-4), the solubility (kinetic) (in general, the concentration staying in solution when a stock, usually in DMSO, is diluted into the medium) came to 1 µM (≈ 0.455 µg/mL).

On to `C#CC(=O)N1[C@@H](CCCC)Cc2c([nH]c3c(F)cc(F)cc23)[C@@H]1C1CCN(C(=O)OC)CC1` [Compound B-28], for which the IC50 was determined as 0.06 µM in series [2] (setting [10]); 0.032 µM in series [5] (Table B-3, 786-O cells); 8.1 µM in series [8] (Table B-3, A431 cells). Besides, the “CD-1 Mouse Whole Blood Stability % Remaining” value in series [7] (0 min) stood at 100.0%; in [7] (30 min), 9.6%; in [7] (60 min), 2.1%.

Regarding `C#CC(=O)N1[C@@H](CCCC)Cc2c([nH]c3c(F)cc(F)cc23)[C@@H]1c1ccc(N2CCN(C(C)=O)CC2)c(C#N)c1` [Compound B-32], the IC50 in series [2] (setting [10]) was 0.029 µM; in series [5] (Table B-3, 786-O cells), 0.018 µM. Further, the solubility (as a rule, the concentration that dissolves in the medium under given conditions) in series [9] (aqueous buffer, pH 3.0, read-out: Eq. solubility pH 3.0) was under 1 µg/mL; in [9] (setting [11]) it was under 1 µg/mL; in series [9] (setting [12]), 9 to 18 µg/mL (≈ 16.6 to 33.1 µM). Besides, the solubility (kinetic) in series [6] (Table B-7) is under 1 µM.

In the case of `C#CC(=O)N1[C@@H](CCCC)Cc2c([nH]c3c(F)cc(F)cc23)[C@@H]1c1cnn(C)c1` [Compound B-33], the IC50 in series [2] (setting [10]) was 0.257 µM; in series [5] (Table B-3, 786-O cells), 0.121 µM; in series [8] (Table B-3, A431 cells), over 10 µM. Further, the solubility was under 1 µg/mL in [9] (setting [11]) and over 1090 µg/mL in [9] (setting [12]).

On to `C#CC(=O)N1[C@@H](CCCC)Cc2c([nH]c3c(F)cc(F)cc23)[C@@H]1c1ccc(NC(=O)OCC)cc1` [Compound B-35], for which the “human blood stability % remaining” value in series [1] (15 min) amounted to 107%_15; in series [1] (30 min), 31%_30; in [1] (45 min) it was 15%_45; in series [1] (60 min), 8.4%_60; in series [1] (120 min), 0%_120. The IC50 in series [2] (setting [10]) was 0.019 µM; in series [5] (Table B-3, 786-O cells), 0.01 µM; in series [8] (Table B-3, A431 cells) it was 6.6 µM. Moreover, in series [3], the “rat hepatocytes extr. Ratio” value is on record as 0.78. Also, in [3] (180 min), the “rat hepatocytes % met @ 180 min” value came to 94%. The half-life came to 1.13 h in series [3] (rat hepatocytes, read-out: rat hepatocytes T1/2) and 1.63 h in [4] (human hepatocytes, read-out: human hepatocytes T1/2). The hepatocyte CLint in [3] (rat hepatocytes, read-out: rat hepatocytes h Clintr (μL/min/10^6 cells)) was 41 µL/min/1e6 cells; in series [4] (human hepatocytes, read-out: human hepatocytes h Clintr (μL/min/10^6 cells)), 28 µL/min/1e6 cells. The solubility in series [9] (setting [12]) is 10 µg/mL (≈ 20.9 µM). Besides, the “human hepatocytes extr. Ratio” value in series [4] came out at 0.8. Besides, the “human hepatocytes % met @ 180 min” value in series [4] (180 min) is on record as 73%. Also, in series [6] (Table B-7), the “Kinetic solubility (PBS, pH 7.4, μM)” value is under 1 μM. The compound also showed a kinetic solubility in series [6] (Table B-4) of under 1 µM.

As for `C#CC(=O)N1[C@@H](CCCC)Cc2c([nH]c3c(F)cc(F)cc23)[C@@H]1c1ccc(-c2nnn[nH]2)cc1` [Compound B-50], the results for the “CD-1 Mouse Whole Blood Stability % Remaining” value in series [7] (0 min), in [7] (30 min) and in series [7] (60 min) were 100%, 22.3% and 10.5%, respectively.

Regarding `C#CC(=O)N1[C@@H](CCCC)Cc2c([nH]c3c(F)cc(F)cc23)[C@@H]1c1ccc(C#N)nc1` [Compound B-51], the IC50 was 0.01 µM in series [2] (setting [10]); 0.07 µM in [5] (Table B-3, 786-O cells); 1.1 µM in [8] (Table B-3, A431 cells). Further, the figures for the “CD-1 Mouse Whole Blood Stability % Remaining” value in series [7] (0 min), in [7] (30 min) and in series [7] (60 min) were 100%, 0% and 0%, respectively.

`C#CC(=O)N1[C@@H](CCCC)Cc2c([nH]c3ccccc23)[C@@H]1C12CC3CC(CC(C3)C1)C2` [Compound B-94]: the IC50 in series [2] (setting [10]) was 1.37 µM; in [5] (Table B-3, 786-O cells) it was 1.06 µM; in [8] (Table B-3, A431 cells), over 10 µM.

As for `C#CC(=O)N1C(CCCC)Cc2c([nH]c3ccccc23)[C@@H]1c1ccc(C(O)CO)cc1` (stereo partly shown) [Compound B-95], the IC50 in series [2] (setting [10]) is 0.74 µM; in series [5] (Table B-3, 786-O cells), 0.32 µM; in [8] (Table B-3, A431 cells) it was over 10 µM.

Turning to `C#CC(=O)N1[C@@H](CCCC)Cc2c(n(CC#N)c3c(F)cc(F)cc23)[C@@H]1c1ccc(NC(=O)OCCCCC)cc1` [Compound B-97], the IC50 is 0.0455 µM in series [2] (setting [10]); 0.071 µM in series [5] (Table B-3, 786-O cells); 6.35 µM in [8] (Table B-3, A431 cells).

With `C#CC(=O)N1[C@@H](CCCC)Cc2c([nH]c3c(F)cc(F)cc23)[C@@H]1C1CCC2(CC1)OCCO2` [Compound B-99], the IC50 was 0.504 µM in series [2] (setting [10]); 0.207 µM in series [5] (Table B-3, 786-O cells); over 10 µM in series [8] (Table B-3, A431 cells).

For `C#CC(=O)N1[C@@H](CCCC)Cc2c(sc3ccccc23)[C@@H]1c1ccc(NC(=O)OCCCCC)cc1` [Compound B-100], the IC50 in [2] (setting [10]) was 0.04 µM; in [5] (Table B-3, 786-O cells) it was 0.0285 µM; in series [8] (Table B-3, A431 cells), 7.84 µM.

Regarding `C#CC(=O)N1[C@@H](CCCC)Cc2c([nH]c3c(F)cc(F)cc23)[C@@H]1CCC` [Compound C-3], the IC50 in series [2] (setting [13]) was 0.22 µM; in [5] (Table C-3, 786-O cells), 0.14 µM; in series [8] (Table C-3, A431 cells), over 10 µM.

As to `C#CC(=O)N1[C@@H](CCCC)Cc2c([nH]c3c(F)cc(F)cc23)[C@@H]1CCCC` [Compound C-4], the IC50 is 0.045 µM in series [2] (setting [13]); 0.048 µM in series [5] (Table C-3, 786-O cells); 4.4 µM in series [8] (Table C-3, A431 cells).

With `C#CC(=O)N1[C@@H](CCCC)Cc2c([nH]c3c(F)cc(F)cc23)[C@@H]1CC(C)C` [Compound C-5], the IC50 in series [2] (setting [13]) is 0.22 µM; in series [5] (Table C-3, 786-O cells) it was 0.22 µM; in [8] (Table C-3, A431 cells), over 10 µM.

As to `C#CC(=O)N1[C@@H](CCCC)Cc2c([nH]c3c(F)cc(F)cc23)[C@@H]1CCCCCCCCCCCCCCC` [Compound C-6], the IC50 in [2] (setting [13]) was over 10 µM; in series [5] (Table C-3, 786-O cells), over 10 µM; in series [8] (Table C-3, A431 cells) it was over 10 µM.

Take `C#CC(=O)N1[C@@H](CCCC)Cc2c([nH]c3c(F)cc(F)cc23)[C@@H]1COCCOC` [Compound C-7]: the IC50 in [2] (setting [13]) stood at 0.093 µM; in [5] (Table C-3, 786-O cells), 0.043 µM; in series [8] (Table C-3, A431 cells), 6.8 µM.

Regarding `C#CC(=O)N1[C@@H](CCCC)Cc2c([nH]c3ccccc23)[C@]1(C)c1ccc(F)cc1` [Compound C-11], the IC50 in series [2] (setting [13]) was 0.22 µM; in series [5] (Table C-3, 786-O cells) it was 0.098 µM; in series [8] (Table C-3, A431 cells), over 10 µM.

For the compound `CCCC[C@H]1Cc2c([nH]c3ccccc23)[C@](C)(c2ccc(F)cc2)N1C(=O)CCl` [Compound C-14], the IC50 in series [2] (setting [13]) is 0.017 µM; in series [5] (Table C-3, 786-O cells), 0.017 µM; in series [8] (Table C-3, A431 cells) it was over 10 µM.

`C#CC(=O)N1[C@@H](CCCC)Cc2c([nH]c3c(F)cc(F)cc23)[C@@H]1CCCCCCCC` [Compound C-21]: the IC50 stood at 0.08 µM in series [2] (setting [13]); 0.07 µM in [5] (Table C-3, 786-O cells); 9.4 µM in series [8] (Table C-3, A431 cells).

In the case of `C#CC(=O)N1[C@@H](C)Cc2c([nH]c3ccccc23)[C@]1(C)c1ccc(F)cc1` [Compound C-37], the IC50 was 0.054 µM in series [2] (setting [13]); 0.017 µM in series [5] (Table C-3, 786-O cells); over 10 µM in series [8] (Table C-3, A431 cells).
